# Data: patent EP0408973B1, “Antiherpes pentapeptides” (BIO-MEGA/BOEHRINGER INGELHEIM RESEARCH INC., priority 1989, dated 1991)
# Starred links: 1 amine or outer side, 2 acyl side, 3 side chain; linkers in the order of their positions; H or OH if unused. Non-standard residues stand in square brackets, D forms with d. Residues, ends and D or L forms follow the SMILES beside them. *: point of attachment. Ala(1H-tetrazol-5-yl) = N[C@@H](Cc1nnn[nH]1)C(=O)O; X1 = CC(C)[C@@H](C(=O)[*:2])N(CCc1ccccc1)[*:1]; Benzoyl(2-Ph) = O=C(c1ccccc1-c1ccccc1)*; Desaminotyrosyl = O=C(CCc1ccc(O)cc1)*; Butanoyl(4-Ph) = O=C(CCCc1ccccc1)*; Hydrocinnamoyl = O=C(CCc1ccccc1)*; Pentanoyl(4-Me) = CC(C)CCC(=O)*; X3 = CC(C)C[C@H](N*)c1nnn[nH]1; X2 = O=C(c1ccccc1Cc1ccccc1)*; NMeV = CN[C@H](C(=O)O)C(C)C
# Molecular target: HSV-1 ribonucleotide reductase (Human herpesvirus 1, UniProt P08543)
# Sequence (P08543 whole entry): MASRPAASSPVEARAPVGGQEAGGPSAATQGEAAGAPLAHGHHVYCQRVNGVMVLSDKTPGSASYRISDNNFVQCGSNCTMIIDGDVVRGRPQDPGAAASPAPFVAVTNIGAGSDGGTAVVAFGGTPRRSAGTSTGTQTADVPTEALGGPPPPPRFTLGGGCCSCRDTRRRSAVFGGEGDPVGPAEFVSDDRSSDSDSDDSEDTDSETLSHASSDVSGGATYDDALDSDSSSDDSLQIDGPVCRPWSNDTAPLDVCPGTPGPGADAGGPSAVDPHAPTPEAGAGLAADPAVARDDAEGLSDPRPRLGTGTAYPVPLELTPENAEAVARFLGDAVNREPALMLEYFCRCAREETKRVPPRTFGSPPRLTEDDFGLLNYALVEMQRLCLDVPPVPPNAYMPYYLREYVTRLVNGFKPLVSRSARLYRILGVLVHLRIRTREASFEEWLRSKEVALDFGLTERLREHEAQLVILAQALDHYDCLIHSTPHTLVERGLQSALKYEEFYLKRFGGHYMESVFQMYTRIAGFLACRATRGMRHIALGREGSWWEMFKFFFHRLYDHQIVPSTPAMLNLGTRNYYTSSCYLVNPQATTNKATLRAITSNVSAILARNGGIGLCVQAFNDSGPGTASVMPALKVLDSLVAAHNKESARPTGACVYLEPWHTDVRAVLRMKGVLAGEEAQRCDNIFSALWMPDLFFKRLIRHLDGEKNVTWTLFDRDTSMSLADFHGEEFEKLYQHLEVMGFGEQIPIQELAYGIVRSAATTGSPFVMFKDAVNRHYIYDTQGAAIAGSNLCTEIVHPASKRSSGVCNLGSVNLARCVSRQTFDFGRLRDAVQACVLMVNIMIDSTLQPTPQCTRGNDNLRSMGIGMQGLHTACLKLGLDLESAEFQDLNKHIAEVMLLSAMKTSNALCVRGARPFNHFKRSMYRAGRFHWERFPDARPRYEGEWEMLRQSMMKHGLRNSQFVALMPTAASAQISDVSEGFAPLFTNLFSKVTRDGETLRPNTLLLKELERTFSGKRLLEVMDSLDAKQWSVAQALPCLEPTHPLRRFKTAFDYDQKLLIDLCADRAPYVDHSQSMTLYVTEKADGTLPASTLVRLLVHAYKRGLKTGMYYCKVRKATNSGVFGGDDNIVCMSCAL
# Assay: biochemical
# Source text: Inhibition of Herpes Simplex Virus (HSV, type 1) Ribonucleotide Reductase
# • a) Preparation of Enzyme HSV-1 ribonucleotide reductase (partially purified) was obtained from quiescent BHK-21/C13 cells infected with strain F HSV-1 virus at 10 plaque forming units/cell as described by E.A. Cohen et al., J. Gen. […] The number of units of the enzyme preparation used in each assay was constant, based on the specific activity of the enzyme preparation.
row,Compound,IC50 [µM]
1,CC[C@H](C)[C@H](NC(=O)[C@H](C(C)C)N(C)C(=O)c1ccccc1Cc1ccccc1)C(=O)N[C@@H](CC(N)=O)C(=O)N[C@@H](CC(=O)O)C(=O)N[C@@H](CC(C)C)C(=O)O (X2-[NMeV]INDL-OH),5.5
2,"CC[C@H](C)[C@H](NC(=O)[C@H](C(C)C)N(C)C(=O)CCc1ccc(O)cc1)C(=O)N[C@@H](CC(N)=O)C(=O)N[C@@H](CC(=O)O)C(=O)N[C@@H](CC(C)C)C(=O)O [DAT / CH3 / CONH2 / COOH, DAT-N-Me-Val-Ile-Asn-Asp-Leu-OH] (Desaminotyrosyl-[NMeV]INDL-OH)",6
3,CC[C@H](C)[C@H](NC(=O)[C@H](C(C)C)N(C)C(=O)CCC(C)C)C(=O)N[C@@H](CC(N)=O)C(=O)N[C@@H](CC(=O)O)C(=O)N[C@@H](CC(C)C)C(=O)O [(CH3)2CHCH2CH2CO / CH3 / CONH2 / COOH] ({Pentanoyl(4-Me)}-[NMeV]INDL-OH),7.6
4,"CC[C@H](C)[C@H](NC(=O)[C@H](C(C)C)N(C)C(=O)CCc1ccccc1)C(=O)N[C@@H](Cc1nnn[nH]1)C(=O)N[C@@H](CC(=O)O)C(=O)N[C@@H](CC(C)C)C(=O)O [PhCH2CH2CO / CH3 / 5-1H-t / COOH, PhCH2CH2CO-N-Me-Val-Ile-NHCH[CH2-5-1H-tetrazole]CO-Asp-Leu-OH] (Hydrocinnamoyl-[NMeV]I[Ala(1H-tetrazol-5-yl)]DL-OH)",2
5,CC[C@H](C)[C@H](NC(=O)[C@H](C(C)C)N(CCc1ccccc1)C(C)=O)C(=O)N[C@@H](CC(N)=O)C(=O)N[C@@H](CC(=O)O)C(=O)N[C@@H](CC(C)C)C(=O)O [CH3CO / PhCH2CH2 / CONH2 / COOH] (Ac-[X1]INDL-OH),17
6,"CC[C@H](C)[C@H](NC(=O)[C@H](C(C)C)N(C)C(=O)CCc1ccccc1)C(=O)N[C@@H](CC(N)=O)C(=O)N[C@@H](CC(=O)O)C(=O)N[C@@H](CC(C)C)c1nnn[nH]1 [PhCH2CH2CO / CH3 / CONH2 / 5-1H-t, PhCH,CH,CO-N-Me-Val-Ile-Asn-Asp-NHCH[CH2-CH(CH3)2]-5-1H-tetrazole] (Hydrocinnamoyl-[NMeV]IND-X3)",3.8
7,CC[C@H](C)[C@H](NC(=O)[C@H](C(C)C)N(C)C(=O)c1ccccc1-c1ccccc1)C(=O)N[C@@H](CC(N)=O)C(=O)N[C@@H](CC(=O)O)C(=O)N[C@@H](CC(C)C)C(=O)O ({Benzoyl(2-Ph)}-[NMeV]INDL-OH),2.5
8,CC[C@H](C)[C@H](NC(=O)[C@H](C(C)C)N(C)C(=O)CCCc1ccccc1)C(=O)N[C@@H](CC(N)=O)C(=O)N[C@@H](CC(=O)O)C(=O)N[C@@H](CC(C)C)C(=O)O [PhCH2CH2CH2CO / CH3 / CONH2 / COOH] ({Butanoyl(4-Ph)}-[NMeV]INDL-OH),6.2
